# From patent publication US20250003952A1, “SENOLYTIC DRUG SCREENING METHOD AND SENOLYTIC DRUG” (KYOTO UNIVERSITY, priority 2021, published 2025)
# Peptide text beside a SMILES is read from it. * marks the point of attachment. Cbz = O=C(OCc1ccccc1)*
# Legend:
# IMR90 cells [1] = assay: Secondary screening: senolytic activity, young vs senescent IMR90 cells, crystal violet; assay type: cell-based, human; settings: young vs Ras-induced senescent IMR90 cells; 5 μM and 10 μM; 72 hours; criterion of positivity 1.14 or more
# Procedure: In the secondary screening, the agent sensitivity of young IMR90 cells and senescent IMR90 cells was compared. The senescent IMR90 cells were prepared by inducing an oncogenic Ras mutation. The young cells and the senescent cells were each seeded in a 96-well plate, and two days later, the candidate drugs obtained from the primary screening were treated at two concentrations of 5 μM and 10 μM. Surviving cells after 72 hours were fixed with formalin and stained with crystal violet. After that, crystal violet in each well was extracted with 2% Triton X100 and quantified (FIG. 31-1 and FIG. 31-2). Young cells and senescent cells were each treated with a solvent (DMSO), and the resulting cells were used as a negative control, and the survival rate compared to the negative control was calculated by the following expression. Furthermore, the agent sensitivity of the young cells and the senescent cells was compared and evaluated as senolytic activity (young cell viability/senescent cell viability). The criterion of positivity was a senolytic activity of 1.14 or more.
# Viability(%)=(Sample/negative subject)×100
# Senolytic activity=young cell viability/senescent cell viability
# PGAM-Chk1 kinase binding = settings: cancer cells; Mikawa et al., 2020; cited from earlier work
# HIF-2α = HIF-2α protein (Western blot) and mRNA expression in IMR90 cells; assay type: cell-based, human
# Description: As a result, it was observed that the HIF-2α protein decreased in the nutlin 3b-treated group and the BI-D1870-treated group (upper diagram and lower diagram in FIG. 22).
# An oncogenic Ras was introduced into young cells (within 1 month of continuous culture) of IMR90 cells to induce senescent cells (OIS). […] It is known that ubiquitination is induced by phosphorylation in the vicinity of a ubiquitination site (Hagai et al., 2012). The consensus sequences (K/R-K/R-x-x-S/T) for phosphorylation by Chk1 located at the N-terminus of HIF-2α were conserved, and these were named Motif1 (including Ser12 residues) and Motif2 (including Ser19 residues) (FIG. 40, SEQ ID NOs: 77 to 81).
# IMR90 cells [2] = assay: Senolysis / cell death of young and Ras-induced senescent IMR90 cells; assay type: cell-based, human
# Description: Ras gene with oncogenic mutation was introduced into young cells (within 1 month of continuous culture) of IMR90 cells by retroviral infection to acquire senescent cells. […] The control received only DMSO treatment. Representative images of cells observed under a microscope are shown (FIG. 11).
# An oncogenic mutated Ras gene was introduced into young cells (within 1 month of continuous culture) of IMR90 cells by retroviral infection to acquire stress-induced senescent cells. The young cells and the senescent cells were both treated with different concentrations of the RSK kinase inhibitor BI-D1870 for 96 hours to evaluate cell death.
# An oncogenic mutated Ras gene was introduced into young cells (within 1 month of continuous culture) of IMR90 cells by retroviral infection to acquire stress-induced senescent cells. The young cells and the senescent cells of IMR90 were both transfected with an RSK1 siRNA (two types of siRNA #1 (SEQ ID NO: 7) or #2 (SEQ ID NO: 8) having different target sequences) or a control to knock down RSK1. Representative images of cells observed under a microscope are shown (upper diagram in FIG. 20).
# An oncogenic Ras was introduced into young cells (within 1 month of continuous culture) of IMR90 cells to induce senescent cells (OIS). The young cells and the senescent cells of IMR90 were transfected with two HIF-2α-specific siRNAs (SEQ ID NO: 9 and SEQ ID NO: 10) having different target sequences to knock down HIF-2α.
# An oncogenic Ras was introduced into young cells (within 1 month of continuous culture) of IMR90 cells to induce senescent cells (OIS). The young cells and the senescent cells of IMR90 were transfected with a BIM-specific siRNA to knock down BIM.
# An oncogenic Ras was introduced into young cells (within 1 month of continuous culture) of IMR90 cells to induce senescent cells (OIS). In the young cells and the senescent cells of IMR90, HIF-2α alone or both HIF-2α and BIM were knocked down by using their respective specific siRNAs (SEQ ID NO: 9, SEQ ID NO: 10), and cell death was confirmed (FIG. 28).
# The latter information consists of 12,655 ChIP datasets from 903 antigens (transcription factors and epigenetic regulators).
# human fibroblasts = assay: Lactate treatment of human fibroblasts; assay type: cell-based
# Procedure: In order to explore the physiological significance of enhanced glycolysis in senescence, a conditioned medium consisting of senescent cells and non-senescent cells was prepared and added to human fibroblasts at the early passage. PGAM-Chk1 interaction was potentiated by culture supernatant from the senescent cells, but not potentiated in the control (FIG. 44). It was considered from this that a component potentiating the PGAM-Chk1 interaction was included in the culture supernatant from the senescent cells. Lactate was considered to be a candidate for such a component, and human fibroblasts were treated with lactate. […] GPR81 signaling is known to be partially involved in oncogenic modules including the Ras pathway (Ohno et al., 2018). In senescent cells or lactate-treated cells, it was observed that RSK1 kinase, which is downstream of the Ras pathway, was activated, accompanied by phosphorylation of Ser280 of Chk1 (Li et al., 2012), which is a known target of RSK (FIG. 49).
# [3] = human fibroblasts treated with lactate
compound,measurement,setting,value
COc1ccc(-c2ccc3c(N4CCOC[C@@H]4C)nc(N4CCOC[C@@H]4C)nc3n2)cc1CO [AZD8055],senolytic activity (young cell viability/senescent cell viability),IMR90 cells [1],have senolytic activity
CC(C)CCN1c2nc(Nc3cc(F)c(O)c(F)c3)ncc2N(C)C(=O)C1C (stereo not drawn) [BI-D1870],PGAM-Chk1 kinase binding,PGAM-Chk1 kinase binding,inhibited
same,glycolytic metabolism,PGAM-Chk1 kinase binding,decreased
same,HIF-2α protein,"HIF-2α; young and senescent cells, different concentrations for 96 hours",decreased
same,senolytic effect (cell death),"IMR90 cells [2]; young and senescent IMR90 cells, 96 hours, 10 μM or 20 μM",remarkable senolytic effect
Cc1ccc2nc(NCCN)c3ncc(C)n3c2c1 [BMS-345541],senolytic activity (young cell viability/senescent cell viability),IMR90 cells [1],have senolytic activity
O=C(O)c1ccc2c(c1)nc(Nc1cccc(Cl)c1)c1ccncc12 [CX-4945],senolytic activity (young cell viability/senescent cell viability),IMR90 cells [1],have senolytic activity
"Cc1ccc(-n2nc(C(C)(C)C)cc2NC(=O)Nc2ccc(OCCN3CCOCC3)c3ccccc23)cc1 [Doramapimod (BIRB 796), Doramapimod]",senolytic activity (young cell viability/senescent cell viability),IMR90 cells [1],have senolytic activity
COc1ccc(-c2ccc3c(N4CCOCC4)nc(N4C[C@@H](C)O[C@@H](C)C4)nc3n2)cc1CO [KU-0063794],senolytic activity (young cell viability/senescent cell viability),IMR90 cells [1],have senolytic activity
CC(C)C[C@@H](C=O)NC(=O)[C@H](CC(C)C)NC(=O)[C@H](CC(C)C)NC(=O)OCc1ccccc1 [MG132] (Cbz-Leu-Leu-Leu-aldehyde),HIF-2α protein level under nutlin 3b treatment,HIF-2α; senescent (OIS) IMR90 cells treated with nutlin 3b plus proteasome inhibitor,remarkably restored
CC[C@H](C)C(=O)O[C@H]1CCC=C2C=C[C@H](C)[C@H](CC[C@@H]3C[C@@H](O)CC(=O)O3)[C@H]21 [Mevastatin],senolytic activity (young cell viability/senescent cell viability),IMR90 cells [1],have senolytic activity
Cc1ccc(C(=O)Nc2cccc(C(F)(F)F)c2)cc1Nc1nc(-c2cccnc2)nc2c1cnn2C [NVP-BHG712],senolytic activity (young cell viability/senescent cell viability),IMR90 cells [1],have senolytic activity
CCOc1cc2ncc(C#N)c(Nc3ccc(OCc4ccccn4)c(Cl)c3)c2cc1NC(=O)/C=C/CN(C)C [Neratinib],senolytic activity (young cell viability/senescent cell viability),IMR90 cells [1],have senolytic activity
CN(C)C1CCN(C(=O)c2ccc(NC(=O)Nc3ccc(-c4nc(N5CCOCC5)nc(N5CCOCC5)n4)cc3)cc2)CC1 [PF-05212384],senolytic activity (young cell viability/senescent cell viability),IMR90 cells [1],have senolytic activity
CC(C)[C@H](NC(=O)c1ccc2ccccc2n1)C(=O)N[C@@H](CC(=O)O)C(=O)COc1c(F)cccc1F [QVD-Oph],viability of senescent cells under nutlin 3b treatment,"IMR90 cells [2]; senescent cells, nutlin 3b plus apoptosis inhibitor",restored
CC(C)c1cc(-c2ccc(F)c3ccccc23)nc(N)n1 [RS-127445],senolytic activity (young cell viability/senescent cell viability),IMR90 cells [1],have senolytic activity
C[S+]([O-])c1ccc(-c2nc(-c3ccncc3)c(-c3ccc(F)cc3)[nH]2)cc1 (stereo not drawn) [SB203580],senolytic activity (young cell viability/senescent cell viability),IMR90 cells [1],have senolytic activity
CC(C)c1ccccc1Cc1cc(C(=O)Nc2ccc(S(=O)(=O)c3ccccc3C(C)(C)C)cc2)c(O)c(O)c1O [TW-37],senolytic activity (young cell viability/senescent cell viability),IMR90 cells [1],have senolytic activity
"CC(/C=C/C(=O)NO)=C\[C@@H](C)C(=O)c1ccc(N(C)C)cc1 [Trichostatin A (TSA), Trichostatin A]",senolytic activity (young cell viability/senescent cell viability),IMR90 cells [1],have senolytic activity
COC(=O)c1ccc2c(c1)NC(=O)/C2=C(\Nc1ccc(N(C)C(=O)CN2CCN(C)CC2)cc1)c1ccccc1 [Vargatef],senolytic activity (young cell viability/senescent cell viability),IMR90 cells [1],have senolytic activity
CC(O)C(=O)O (stereo not drawn) [lactate],SASP expression,human fibroblasts; [3],stimulated
same,accumulation of HIF-2α,human fibroblasts; [3],observed in a lactate concentration-dependent manner
same,enhancement of PGAM-Chk1 interaction,human fibroblasts; [3],observed in a lactate concentration-dependent manner
same,p21 level vs control,human fibroblasts; [3],did not provide a difference
same,phosphorylation of Ser12 of HIF-2α,human fibroblasts; [3],observed in a lactate concentration-dependent manner
same,RSK1 kinase activation (accompanied by phosphorylation of Ser280 of Chk1),human fibroblasts; lactate-treated cells,activated
Verteporfin,senolytic activity (young cell viability/senescent cell viability),IMR90 cells [1],have senolytic activity
